Literature values in patent US11304900B1, “Transparent colloidal vitamin supplement blend” (Quicksilver Scientific, Inc., priority 2017, dated 2022).
Read-outs that look alike come from different tables or passages of the source.

How the values were obtained:
[1] = in vivo
[2] = not given; remark: listed apart in the source

| SMILES | change in serum levels ([1]; iv) | change in blood serum magnesium concentration ([1]; po) | mean peak plasma level (IV administration of 50 g/day) [mg/dL] | increase of plasma concentration (daily intake increased from 200 mg/day to 2,500 mg/day) [%] | highest blood serum level observed (oral administration of pharmacological doses) [mg/dL] | plasma concentration (oral daily intake 200 mg/day) [mg/dL] | plasma concentration (oral daily intake 2,500 mg/day) [mg/dL] | blood serum concentration at which antiviral effect has been demonstrated [2] [mg/dL] |
| --- | --- | --- | --- | --- | --- | --- | --- | --- |
| [Mg+2] [magnesium] | double or triple | little or no change | – | – | – | – | – | – |
| O=C1O[C@H]([C@@H](O)CO)C(O)=C1O [Vitamin C, ascorbic acid] | – | – | 80 | 25 | 9.3 | 1.2 | 1.5 | 10 to 15 |
